According to PubChem BioAssay (NCI):
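Compound exposure: 48 hours, 5 concentrations, 96-well plates. GI50 marks 50% less growth. TGI: concentration producing complete growth inhibition.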

Assays:
Assay in all cases: inhibition of tumour cell growth, NCI panel, 48 h
U251 CNS = tested on: U251 CNS
UO-31 renal = tested on: UO-31 renal
OVCAR-3 ovarian = tested on: OVCAR-3 ovarian
NCI-H23 lung = tested on: NCI-H23 lung
SW-620 colon = tested on: SW-620 colon
SN12C renal = tested on: SN12C renal
UACC-257 melanoma = tested on: UACC-257 melanoma
SF-539 CNS = tested on: SF-539 CNS
T-47D breast = tested on: T-47D breast
HT29 colon = tested on: HT29 colon
NCI-H460 lung = tested on: NCI-H460 lung
A549 NSCLC = tested on: A549 NSCLC
HS 578T breast = tested on: HS 578T breast
SK-MEL-28 melanoma = tested on: SK-MEL-28 melanoma
SK-MEL-5 melanoma = tested on: SK-MEL-5 melanoma
OVCAR-5 ovarian = tested on: OVCAR-5 ovarian
MOLT-4 leukemia = tested on: MOLT-4 leukemia
SF-295 CNS = tested on: SF-295 CNS
786-0 renal = tested on: 786-0 renal
HL-60(TB) leukemia = tested on: HL-60(TB) leukemia
M14 melanoma = tested on: M14 melanoma
NCI-H226 lung = tested on: NCI-H226 lung
CCRF-CEM leukemia = tested on: CCRF-CEM leukemia
DU-145 prostate = tested on: DU-145 prostate
CAKI-1 renal = tested on: CAKI-1 renal
OVCAR-8 ovarian = tested on: OVCAR-8 ovarian
NCI/ADR-RES ovarian = tested on: NCI/ADR-RES ovarian
HOP-62 NSCLC = tested on: HOP-62 NSCLC
RXF 393 renal = tested on: RXF 393 renal
MDA-MB-231 breast = tested on: MDA-MB-231 breast
SR leukemia = tested on: SR leukemia
BT-549 breast = tested on: BT-549 breast
K-562 leukemia = tested on: K-562 leukemia
MCF7 breast = tested on: MCF7 breast
PC-3 prostate = tested on: PC-3 prostate
HCC-2998 colon = tested on: HCC-2998 colon
MALME-3M melanoma = tested on: MALME-3M melanoma
HCT-15 colon = tested on: HCT-15 colon
ACHN renal = tested on: ACHN renal
HOP-92 NSCLC = tested on: HOP-92 NSCLC
SK-OV-3 ovarian = tested on: SK-OV-3 ovarian
SNB-75 CNS = tested on: SNB-75 CNS
HCT-116 colon = tested on: HCT-116 colon
OVCAR-4 ovarian = tested on: OVCAR-4 ovarian
NCI-H522 lung = tested on: NCI-H522 lung
SF-268 CNS = tested on: SF-268 CNS
IGROV1 ovarian = tested on: IGROV1 ovarian
MDA-MB-435 = tested on: MDA-MB-435
LOX IMVI melanoma = tested on: LOX IMVI melanoma
RPMI-8226 leukemia = tested on: RPMI-8226 leukemia
SK-MEL-2 melanoma = tested on: SK-MEL-2 melanoma
EKVX NSCLC = tested on: EKVX NSCLC
UACC-62 melanoma = tested on: UACC-62 melanoma
SNB-19 CNS = tested on: SNB-19 CNS
COLO 205 colon = tested on: COLO 205 colon
KM12 colon = tested on: KM12 colon
A498 renal = tested on: A498 renal
TK-10 renal = tested on: TK-10 renal
MDA-N = tested on: MDA-N

Which results are given for `C[C@@H]1CN(Cc2ccc(F)cc2)[C@@H](C)CN1C(=O)c1cc2c(C(=O)C(=O)N(C)C)cn(C)c2cc1Cl`?
GI50 (U251 CNS): 17.4 µM; TGI (U251 CNS): 46.1 µM; GI50 (UO-31 renal): 15.3 µM; TGI (UO-31 renal): > 81.9 µM; GI50 (OVCAR-3 ovarian): 18.7 µM; TGI (OVCAR-3 ovarian): 39.2 µM; GI50 (NCI-H23 lung): 19.6 µM; TGI (NCI-H23 lung): 57.2 µM; GI50 (SW-620 colon): 24 µM; TGI (SW-620 colon): > 84.9 µM; GI50 (SN12C renal): 15.7 µM; TGI (SN12C renal): 43.5 µM; GI50 (UACC-257 melanoma): 15.7 µM; TGI (UACC-257 melanoma): 34.7 µM; GI50 (SF-539 CNS): 14.9 µM; TGI (SF-539 CNS): 29.7 µM; GI50 (T-47D breast): 5.97 µM; TGI (T-47D breast): 65.6 µM; GI50 (HT29 colon): 14 µM; TGI (HT29 colon): 36.3 µM; GI50 (NCI-H460 lung): 16.8 µM; TGI (NCI-H460 lung): 37.4 µM; GI50 (A549 NSCLC): 24 µM; TGI (A549 NSCLC): > 92.4 µM; GI50 (HS 578T breast): 19.8 µM; TGI (HS 578T breast): 62.8 µM; GI50 (SK-MEL-28 melanoma): 13 µM; TGI (SK-MEL-28 melanoma): 35.2 µM; GI50 (SK-MEL-5 melanoma): 13.1 µM; TGI (SK-MEL-5 melanoma): 26 µM; GI50 (OVCAR-5 ovarian): 21.8 µM; TGI (OVCAR-5 ovarian): 60.4 µM; GI50 (MOLT-4 leukemia): 17.9 µM; TGI (MOLT-4 leukemia): 45.5 µM; GI50 (SF-295 CNS): 14.9 µM; TGI (SF-295 CNS): 36.7 µM; GI50 (786-0 renal): 21.2 µM; TGI (786-0 renal): 67.1 µM; GI50 (HL-60(TB) leukemia): 23.5 µM; TGI (HL-60(TB) leukemia): 63.2 µM; GI50 (M14 melanoma): 13.4 µM; TGI (M14 melanoma): 36.6 µM; GI50 (NCI-H226 lung): 12.2 µM; TGI (NCI-H226 lung): 31.1 µM; GI50 (CCRF-CEM leukemia): 18.5 µM; TGI (CCRF-CEM leukemia): 50.2 µM; GI50 (DU-145 prostate): 18.8 µM; TGI (DU-145 prostate): 53.1 µM; GI50 (CAKI-1 renal): 16.1 µM; TGI (CAKI-1 renal): 67.4 µM; GI50 (OVCAR-8 ovarian): 17.6 µM; TGI (OVCAR-8 ovarian): 48.8 µM; GI50 (NCI/ADR-RES ovarian): 14.9 µM; TGI (NCI/ADR-RES ovarian): 52.7 µM; GI50 (HOP-62 NSCLC): 18.7 µM; TGI (HOP-62 NSCLC): 48.9 µM; GI50 (RXF 393 renal): 12.3 µM; TGI (RXF 393 renal): 27.6 µM; GI50 (MDA-MB-231 breast): 14.9 µM; TGI (MDA-MB-231 breast): 32.7 µM; GI50 (SR leukemia): 13.4 µM; TGI (SR leukemia): 39.2 µM; GI50 (BT-549 breast): 15.2 µM; TGI (BT-549 breast): 41.8 µM; GI50 (K-562 leukemia): 20.8 µM; TGI (K-562 leukemia): 88.6 µM; GI50 (MCF7 breast): 15.2 µM; TGI (MCF7 breast): 37.3 µM; GI50 (PC-3 prostate): 18.9 µM; TGI (PC-3 prostate): > 77.7 µM; GI50 (HCC-2998 colon): 17.3 µM; TGI (HCC-2998 colon): 34.4 µM; GI50 (MALME-3M melanoma): 17.2 µM; TGI (MALME-3M melanoma): 37.7 µM; GI50 (HCT-15 colon): 18.3 µM; TGI (HCT-15 colon): 47.3 µM; GI50 (ACHN renal): 16.6 µM; TGI (ACHN renal): > 54.6 µM; GI50 (HOP-92 NSCLC): 19.4 µM; TGI (HOP-92 NSCLC): 56.5 µM; GI50 (SK-OV-3 ovarian): 22.7 µM; TGI (SK-OV-3 ovarian): > 79.6 µM; GI50 (SNB-75 CNS): 8.35 µM; TGI (SNB-75 CNS): 27.9 µM; GI50 (HCT-116 colon): 21.6 µM; TGI (HCT-116 colon): > 71.9 µM; GI50 (OVCAR-4 ovarian): 22.1 µM; TGI (OVCAR-4 ovarian): > 90.3 µM; GI50 (NCI-H522 lung): 15.8 µM; TGI (NCI-H522 lung): 43.4 µM; GI50 (SF-268 CNS): 18.5 µM; TGI (SF-268 CNS): 46.1 µM; GI50 (IGROV1 ovarian): 19.5 µM; TGI (IGROV1 ovarian): 49.7 µM; GI50 (MDA-MB-435): 15 µM; TGI (MDA-MB-435): 35.1 µM; GI50 (LOX IMVI melanoma): 14.2 µM; TGI (LOX IMVI melanoma): 28.4 µM; GI50 (RPMI-8226 leukemia): 16.7 µM; TGI (RPMI-8226 leukemia): 51.9 µM; GI50 (SK-MEL-2 melanoma): 17 µM; TGI (SK-MEL-2 melanoma): 36.3 µM; GI50 (EKVX NSCLC): 20.7 µM; TGI (EKVX NSCLC): 89.8 µM; GI50 (UACC-62 melanoma): 5.86 µM; TGI (UACC-62 melanoma): 23.9 µM; GI50 (SNB-19 CNS): 17.4 µM; TGI (SNB-19 CNS): 64.1 µM; GI50 (COLO 205 colon): 7.66 µM; TGI (COLO 205 colon): 25.4 µM; GI50 (KM12 colon): 17.3 µM; TGI (KM12 colon): 37.4 µM; GI50 (A498 renal): 9.9 µM; TGI (A498 renal): 43.8 µM; GI50 (TK-10 renal): 30.3 µM; TGI (TK-10 renal): > 89.7 µM

What does the source list for `N#CC1C(=O)NC23CCCCC2C1c1ccccc1O3` (stereo not given)?
TGI (U251 CNS): > 100 µM; TGI (UO-31 renal): > 100 µM; TGI (OVCAR-3 ovarian): > 100 µM; TGI (NCI-H23 lung): > 100 µM; TGI (SW-620 colon): > 100 µM; TGI (UACC-257 melanoma): > 100 µM; TGI (HT29 colon): > 100 µM; TGI (NCI-H460 lung): > 100 µM; TGI (A549 NSCLC): > 100 µM; TGI (SK-MEL-28 melanoma): > 100 µM; TGI (SK-MEL-5 melanoma): > 100 µM; TGI (OVCAR-5 ovarian): > 100 µM; TGI (MOLT-4 leukemia): > 100 µM; TGI (SF-295 CNS): > 100 µM; TGI (786-0 renal): > 100 µM; TGI (HL-60(TB) leukemia): > 100 µM; TGI (M14 melanoma): > 100 µM; TGI (NCI-H226 lung): > 100 µM; TGI (CCRF-CEM leukemia): > 100 µM; TGI (DU-145 prostate): > 100 µM; TGI (CAKI-1 renal): > 100 µM; TGI (OVCAR-8 ovarian): > 100 µM; TGI (NCI/ADR-RES ovarian): > 100 µM; TGI (HOP-62 NSCLC): > 100 µM; TGI (RXF 393 renal): > 100 µM; TGI (MDA-MB-231 breast): > 100 µM; TGI (BT-549 breast): > 100 µM; TGI (K-562 leukemia): > 100 µM; TGI (MDA-N): > 100 µM; TGI (MCF7 breast): > 100 µM; TGI (PC-3 prostate): > 100 µM; TGI (HCC-2998 colon): > 100 µM; TGI (MALME-3M melanoma): > 100 µM; TGI (HCT-15 colon): > 100 µM; TGI (ACHN renal): > 100 µM; TGI (HOP-92 NSCLC): > 100 µM; TGI (SK-OV-3 ovarian): > 100 µM; TGI (SNB-75 CNS): > 100 µM; TGI (HCT-116 colon): > 100 µM; TGI (OVCAR-4 ovarian): > 100 µM; TGI (NCI-H522 lung): > 100 µM; TGI (SF-268 CNS): > 100 µM; TGI (IGROV1 ovarian): > 100 µM; TGI (MDA-MB-435): > 100 µM; TGI (LOX IMVI melanoma): > 100 µM; TGI (RPMI-8226 leukemia): > 100 µM; TGI (SK-MEL-2 melanoma): > 100 µM; TGI (EKVX NSCLC): > 100 µM; TGI (UACC-62 melanoma): > 100 µM; TGI (SNB-19 CNS): > 100 µM; TGI (COLO 205 colon): > 100 µM; TGI (KM12 colon): > 100 µM; TGI (A498 renal): > 100 µM; TGI (TK-10 renal): > 100 µM
